According to US9120795B2, “Crystalline form of a β-lactamase inhibitor” (Cubist Pharmaceuticals, Inc., priority 2013, dated 2015):

Experiments:
[1] = test system: Eco.2491 (CMY-2, clinical); experiment: Standard BLI potentiation MIC assay; type: cell-based, Eschericia coli; details: read-out: MIC of β-lactam with BLI
Procedure: (§1) The experimental protocol was performed according to Clinical and Laboratory Standards Institute (CLSI) guidelines with modifications as described below (CLSI guidelines can be derived from the CLSI document M07-A9 published in January 2012: “Methods for Dilution Antimicrobial Susceptibility Tests for Bacteria That Grow Aerobically; Approved Standard-Ninth Edition”).
(§2) To prepare for MIC testing, frozen glycerol stocks of clinical isolates (Klebsiella pneumoniae, Eschericia coli, Enterobacter spp, Citrobacter spp, or Pseudomonas aeruginosa) were used to streak for isolated colonies on rich, non-selective, tryptic soy agar containing 5% sheep's blood (TSAB). Frozen glycerol stocks of laboratory engineered, isogenic E. coli strains, which contain cloned β-lactamase expressing plasmids were used to streak for isolated colonies on rich, selective LB agar supplemented with 25 μg/mL tetracycline to maintain the plasmid. All strains were incubated at 37° C. for 18-24 hrs.
(§3) On the day of testing, primary cultures were started by scraping off 5-10 colonies from the TSAB plates containing clinical strains or the tetracycline supplemented LB plates containing engineered strains. The clinical strain material was suspended in ˜5 mL of cation adjusted Mueller Hinton Broth (CAMHB) in 14 mL culture tubes. The engineered strain material was suspended in CAMHB (supplemented with 25 μg/mL tetracycline) in 14 mL culture tubes. All strains were incubated at 37° C. with aeration (200 rpm) for ˜2 hrs until the optical density at 600 nm (OD600) was ≧0.1.
(§4) The two compound components of the assay were each diluted in CAMHB and added to the 96-well broth microdilution assay plates. 50 μL of the β-lactam was added to each well of the assay plate in 2-fold dilutions with final concentrations ranging from 128 to 0.13 μg/mL. 25 μL of the BLI compound was added to all wells in the broth microdilution plates at a final concentration of 4 μg/mL. Inoculum cultures were prepared by standardizing the primary cultures to OD600=0.1 and then adding 20 μL of the adjusted primary culture per 1 mL CAMHB for clinical strains or CAMHB (supplemented with tetracycline at 100 μg/mL) for engineered strains, so that the final inoculum density was ˜10^5 colony forming units per milliliter. Diluted inoculum cultures were used to inoculate 25 μL per well in 96-well broth microdilution assay plates. The final volume of each well was 100 μL and contained a β-lactam at different concentrations, a BLlcompound at 4 μg/mL concentration, the bacterial culture at an OD600 of approximately 0.001 and when necessary tetracycline at 25 μg/mL.
(§5) Plates were incubated for 18-20 hours at 37° C. with aeration (200 rpm). Following incubation, growth was confirmed visually placing plates over a viewing apparatus (stand with a mirror underneath) and then OD600 was measured using a SpectraMax 340PC384 plate reader (Molecular Devices, Sunnyvale, Calif.). Growth was defined as turbidity that could be detected with the naked eye or achieving minimum OD600 of 0.1. MIC values were defined as the lowest concentration producing no visible turbidity.

[2] = test system: Eco.2840 (KPC-4, isogenic); experiment: Standard BLI potentiation MIC assay; type: cell-based, Eschericia coli; details: read-out: MIC of β-lactam with BLI
Procedure: as §1, §2, §3, §4, §5

[3] = test system: Eco isogenic, CTX-M-15; experiment: Synergy MIC (sMIC) assay; type: cell-based, E. coli; details: CTX-M-15, isogenic Eco; CXA-101 at 4 μg/mL
Procedure: (§6) The synergy MIC (sMIC) assay determines the concentration of the BLI required to potentiate the activity of a fixed concentration of a β-lactam antibiotic against β-lactamase producing bacterial strains. The experimental protocol was performed according to Clinical and Laboratory Standards Institute (CLSI) guidelines with modifications as described below (CLSI guidelines can be derived from the CLSI document M07-A9 published in January 2012: “Methods for Dilution Antimicrobial Susceptibility Tests for Bacteria That Grow Aerobically; Approved Standard-Ninth Edition”). The assay is set-up by serially diluting the BLI across 11 of the 12 wells in each row of a 96-well broth microdilution assay plate, adding the β-lactam at a fixed concentration to all wells in the assay plate, inoculating the assay plate with bacterial strains, and determining the lowest concentration of BLI required to inhibit overnight bacterial growth.
as §2
(§7) On the day of testing, primary cultures were started by scraping off 5-10 colonies from the TSAB plates containing clinical strains or the tetracycline supplemented LB plates containing engineered strains. The clinical strain material was suspended in ˜5 mL of cation adjusted Mueller Hinton Broth (CAMHB) in 14 mL culture tubes. The engineered strain material was suspended in CAMHB (supplemented with tetracycline at 25 μg/mL) in 14 mL culture tubes. All strains were incubated at 37° C. with aeration (200 rpm) for ˜2 hrs until the OD600 was ≧0.1.
as §4, with “prepared” for “diluted”, “BLI” for “β-lactam”, “β-lactam” for “BLI compound”, “isogenic” for “engineered”, “The final volume of each well was 100 μL and contained a β-lactam at different concentrations, a BLlcompound at 4 μg/mL concentration, the bacterial culture at an OD600 of approximately 0.001 and when necessary tetracycline at 25 μg/mL.” left out
as §5, with “sMIC” for “MIC”, “turbidity. […]” for “turbidity.”

[4] = test system: Eco isogenic, KPC-2; experiment: Synergy MIC (sMIC) assay; type: cell-based, E. coli; details: KPC-2, isogenic Eco; CXA-101 at 4 μg/mL
Procedure: as §6, §2, §7
as §4, with “prepared” for “diluted”, “BLI” for “β-lactam”, “β-lactam” for “BLI compound”, “isogenic” for “engineered”, “The final volume of each well was 100 μL and contained a β-lactam at different concentrations, a BLlcompound at 4 μg/mL concentration, the bacterial culture at an OD600 of approximately 0.001 and when necessary tetracycline at 25 μg/mL.” left out
as §5, with “sMIC” for “MIC”, “turbidity. […]” for “turbidity.”

[5] = test system: Eco isogenic, OXA-15; experiment: Synergy MIC (sMIC) assay; type: cell-based, E. coli; details: OXA-15, isogenic Eco; CXA-101 at 4 μg/mL
Procedure: as §6, §2, §7
as §4, with “prepared” for “diluted”, “BLI” for “β-lactam”, “β-lactam” for “BLI compound”, “isogenic” for “engineered”, “The final volume of each well was 100 μL and contained a β-lactam at different concentrations, a BLlcompound at 4 μg/mL concentration, the bacterial culture at an OD600 of approximately 0.001 and when necessary tetracycline at 25 μg/mL.” left out
as §5, with “sMIC” for “MIC”, “turbidity. […]” for “turbidity.”

[6] = test system: Eco isogenic, P99; experiment: Synergy MIC (sMIC) assay; type: cell-based, E. coli; details: CXA-101 at 4 μg/mL
Procedure: as §6, §2, §7
as §4, with “prepared” for “diluted”, “BLI” for “β-lactam”, “β-lactam” for “BLI compound”, “isogenic” for “engineered”, “The final volume of each well was 100 μL and contained a β-lactam at different concentrations, a BLlcompound at 4 μg/mL concentration, the bacterial culture at an OD600 of approximately 0.001 and when necessary tetracycline at 25 μg/mL.” left out
as §5, with “sMIC” for “MIC”, “turbidity. […]” for “turbidity.”

[7] = test system: Eco isogenic, SHV-12; experiment: Synergy MIC (sMIC) assay; type: cell-based, E. coli; details: SHV-12, isogenic Eco; CXA-101 at 4 μg/mL
Procedure: as §6, §2, §7
as §4, with “prepared” for “diluted”, “BLI” for “β-lactam”, “β-lactam” for “BLI compound”, “isogenic” for “engineered”, “The final volume of each well was 100 μL and contained a β-lactam at different concentrations, a BLlcompound at 4 μg/mL concentration, the bacterial culture at an OD600 of approximately 0.001 and when necessary tetracycline at 25 μg/mL.” left out
as §5, with “sMIC” for “MIC”, “turbidity. […]” for “turbidity.”

Q: What does the source list for O=C1N2C[C@@H](CC[C@H]2c2nnco2)N1OS(=O)(=O)[O-].[Na+] [Hydrate 1, sodium (2S,5R)-2-(1,3,4-oxadiazol-2-yl)-7-oxo-1,6-diazabicyclo[3.2.1]octan-6-yl sulfate]?
A: MIC [1]: 0.25 to 0.5 mg/L; MIC [2]: 1 to 2 mg/L; sMIC [3]: A (A = 0.25-0.5 μg/mL); sMIC [4]: AA (AA = <0.25 μg/mL); sMIC [5]: B (B = 1-2 μg/mL); sMIC [6]: AA (AA = <0.25 μg/mL); sMIC [7]: B (B = 1-2 μg/mL)
